# Experimental data published in patent US8541464B2, “Treatment of atrial fibrillation” (HUYA Biosciences International LLC, priority 2009, dated 2013).
# Where “and” joins values, the source holds several entries; their conditions need not be identical. Equal values may be shown once.
# Key:
# [1] = Plasma concentration in primate cardiovascular safety study; format: in vivo, Cynomolgus monkey
# Description: A Swan Ganz (thermodilution catheter) was inserted into the right femoral vein via phlebotomy and advanced into the pulmonary artery for cardiac output measurements. A catheter was inserted in the left femoral artery via an arteriotomy for blood gas determination. Another catheter was inserted in the left femoral vein for blood collection for toxicokinetic evaluation. Finally, an incision was also performed on the left side of the neck to expose the left carotid artery and an electronic dual pressure sensor catheter (Millar) was placed via arteriotomy and advanced into the left ventricle. The catheter was positioned to simultaneously collect left ventricle blood pressure measurements as well as aortic pressure. In addition, a temporary catheter was placed in any of the cephalic veins for administration of Lactated Ringers at 10 mL/kg/hr throughout the course of the experiment.
# Following surgical preparation, hemodynamic and electrocardiographic parameters were allowed to stabilize for at least 15 minutes. The vehicle control and test article were then administered, and hemodynamic, electrocardiographic parameters were monitored. Histamine and plasma PK data was obtained. […]
# conscious beagle dogs = test: Hemodynamics and plasma histamine in conscious beagle dogs, 10 minute infusions of increasing doses; format: in vivo, beagle dog; details: for Heart rate / Histamine Concentration / Mean blood pressure: 10 minute infusion
# Description: The effect of sulcardine sulfate intravenously administered over a 10 minute infusion on the mean blood pressure, heart rate, and plasma histamine concentration of conscious beagle dogs was performed. Three male and female purpose-bred beagles, weighing 10.0-12.7 Kg were intravenously administered repeated increasing doses of sulcardine sulfate (cumulative dose 1-44 mg/kg) at 15 minute intervals following a 10 minute infusion of the prior dose. The administered doses were as follows: 1 mg/kg, 3 mg/kg, 10 mg/kg, and 30 mg/kg sulcardine sulfate. Heart rate, mean arterial blood pressure, and histamine concentrations were measured (Table 3) at 10 minute intervals after completion of each drug infusion period.
substance,measurement,setting,value
sulcardine sulfate,mean peak plasma concentration,"[1]; 90 mg/kg, 15 minute infusion","845.5 ug/mL and 1,860.1 μM"
same,Cmax,"[1]; primates, read-out: Cmax that led to observed side effects such as hypotension",21 µM
same,Heart rate,conscious beagle dogs; 1 mg/kg,90.00 ± 12.58 bpm
same,Histamine Concentration,conscious beagle dogs; 1 mg/kg,93.95 ± 24.11 ng/mL
same,Mean blood pressure,conscious beagle dogs; 1 mg/kg,166.7 ± 10.99 mmHg
same,Heart rate,conscious beagle dogs; 3 mg/kg,110.00 ± 10.41 bpm
same,Histamine Concentration,conscious beagle dogs; 3 mg/kg,182.5 ± 46.11 ng/mL
same,Mean blood pressure,conscious beagle dogs; 3 mg/kg,170.7 ± 7.36 mmHg
same,Heart rate,conscious beagle dogs; 10 mg/kg,111.7 ± 17.64 bpm
same,Histamine Concentration,conscious beagle dogs; 10 mg/kg,252.6 ± 85.78 ng/mL
same,Mean blood pressure,conscious beagle dogs; 10 mg/kg,101.0 ± 28.45 mmHg
same,Heart rate,conscious beagle dogs; 30 mg/kg,111.7 + 6.01 bpm
same,Histamine Concentration,conscious beagle dogs; 30 mg/kg,465.9 ± 27.75 ng/mL
same,Mean blood pressure,conscious beagle dogs; 30 mg/kg,69.7 ± 14.7 mmHg
same,observations during intravenous administration over 10 minutes,conscious beagle dogs; with erythemitous flare of face and ears and urticaria (hives),dose-dependent decrease in arterial blood pressure
